In article PMC11620503 (Antimicrobial Agents and Chemotherapy, 2024):
≈ marks a conversion by molar mass, not a printed value. Read-outs that look alike come from different tables or passages of the source.

How the values were obtained:
[1] = test system: isolates of E. coli with NDM and PBP3 mutations; assay: MIC, broth microdilution; type: cell-based; conditions: Escherichia coli, read-out: median MICs
[2] = test system: Bacteroides thetaiotaomicron KUB2984; assay: MIC, agar dilution, reference strains of anaerobic bacteria; type: cell-based
NDM-4 = NDM-4 (Klebsiella pneumoniae, UniProt C7C422, M154L); assay: Ki app determination (Waley's method)
OXA-72 = OXA-72 (Acinetobacter baumannii, UniProt Q5XQU0); assay: Ki app determination (Waley's method)
IMP-6 = IMP-6 (Serratia marcescens, UniProt P52699, S214G); assay: Ki app determination (Waley's method)
[3] = test system: Clostridioides difficile ATCC BAA-1803; assay: MIC, agar dilution, reference strains of anaerobic bacteria; type: cell-based; conditions: ATCCBAA1803
[4] = test system: Fusobacterium nucleatum ATCC 25586; assay: as above; type: cell-based; conditions: ATCC25586
[5] = test system: Bacteroides fragilis ATCC 25285; assay: as above; type: cell-based; conditions: ATCC25285
VIM-2 = VIM-2 (Escherichia coli, UniProt Q5U7L7); assay: Ki app determination (Waley's method)
CTX-M-14 = CTX-M-14 (Escherichia coli, UniProt Q9L5C7); assay: Ki app determination (Waley's method)
KPC-3 = KPC-3 (Klebsiella pneumoniae, UniProt Q9F663, H272Y); assay: Ki app determination (Waley's method)
[6] = test system: Bacteroides fragilis KUB2983; assay: MIC, agar dilution, reference strains of anaerobic bacteria; type: cell-based
SHV-2 = SHV-2 (Klebsiella pneumoniae, UniProt P0A9Z8); assay: Ki app determination (Waley's method)
VIM-1 = VIM-1 (Pseudomonas aeruginosa, UniProt A0A0F7KYQ8); assay: Ki app determination (Waley's method)
[7] = test system: Clostridioides difficile ATCC 43255; assay: MIC, agar dilution, reference strains of anaerobic bacteria; type: cell-based; conditions: ATCC43255
OXA-24 = OXA-24 (Acinetobacter baumannii, UniProt Q8RLA6); assay: Ki app determination (Waley's method)
[8] = test system: Prevotella histicola KUB2989; assay: MIC, agar dilution, reference strains of anaerobic bacteria; type: cell-based
[9] = test system: 20 anaerobic strains (including Clostridium perfringens, Atopobium rimae, Bacteroides spp., and Prevotella spp.); type: cell-based
[10] = test system: Finegoldia magna ATCC 29328; assay: MIC, agar dilution, reference strains of anaerobic bacteria; type: cell-based; conditions: ATCC29328
[11] = test system: the other seven anaerobic strains; assay: Intrinsic antibacterial activity, MIC agar dilution; type: cell-based
Procedure: MICs were determined by the broth microdilution method and agar dilution method (for anaerobic bacteria only) according to CLSI ([37], [38]). When investigating the effect of HSA on the MICs, CAMHB with 4% HSA (FUJIFILM Wako Pure Chemical Corporation) was used. […] The MBC was defined as the lowest drug concentration at which ≥99.9% of the original inoculum was killed.

[12] = test system: Cefepime/taniborbactam-nonsusceptible Enterobacterales with metallo-carbapenemases (25); assay: MIC, broth microdilution; type: cell-based; conditions: CDC AR Bank
[13] = test system: P. aeruginosa CDC-90 (KPC-5); assay: MIC, broth microdilution; type: cell-based; conditions: Pseudomonas aeruginosa, agent alone
[14] = test system: Klebsiella pneumoniae ATCC BAA-2344 (KPC-2); assay: Lethal mouse model of systemic infection; conditions: ATCCBAA2344, in Mus musculus
[15] = test system: A. baumannii CDC-35 (OXA-66 and OXA-72 producer); assay: Neutropenic murine thigh infection model; conditions: MEM 50 mg/kg q3h sc for 24 h
[16] = test system: E. coli ATCC BAA-2469 (NDM-1); assay: Lethal mouse model of systemic infection; conditions: Escherichia coli, ATCCBAA2469, in Mus musculus, sc
[17] = test system: P. aeruginosa CDC-90 (KPC-5); assay: Lethal mouse model of systemic infection; conditions: Pseudomonas aeruginosa, in Mus musculus, sc, read-out: ED50 of MEM (95% confidence intervals)
[18] = test system: Carbapenemase-producing P. aeruginosa (7); assay: MIC and MBC testing; type: cell-based, Pseudomonas aeruginosa; conditions: 7 carbapenemase-producing P. aeruginosa; fixed BLI concentration (μg/mL) in label
[19] = CLSI breakpoints, marked c: breakpoints for β-lactam alone
[20] = fixed concentration (μg/mL) in label

In the case of CC(C)(O/N=C(\C(=O)N[C@@H]1C(=O)N2C(C(=O)[O-])=C(C[N+]3(CCNC(=O)c4ccc(O)c(O)c4Cl)CCCC3)CS[C@H]12)c1csc(N)n1)C(=O)O [FDC, cefiderocol], the MIC [1] is reported as 4 µg/mL (≈ 5.32 µM).

Molecule N[C@@H](C(=O)N1CC(Oc2ccc3c(c2C(=O)O)OB(O)CC3)C1)c1c[nH]cn1 [KSP-1007, 7-({1-[(2R)-2-amino-2-(1H-imidazol-4-yl)acetyl]azetidin-3-yl}oxy)-2-hydroxy-3,4-dihydro-2H-1,2-benzoxaborinine-8-carboxylic acid] has an MIC [2] of 32 µg/mL (≈ 82.9 µM), a Ki (NDM-4) of 153 ± 45.2 nM and a Ki (OXA-72) of 0.621 ± 0.0248 nM. For the same molecule, the Ki (IMP-6) was 19.9 µM, the MIC [3] was greater than 256 µg/mL and the MIC [4] was 32 µg/mL (≈ 82.9 µM). It also gave an MIC [5] of 8 µg/mL (≈ 20.7 µM), a Ki (VIM-2) of 1210 nM and a Ki (CTX-M-14) of 0.153 ± 0.0235 nM. For the same molecule, the Ki (KPC-3) was 2.19 ± 0.687 nM, the MIC [6] was 16 µg/mL (≈ 41.4 µM) and the Ki (SHV-2) was 361 ± 127 nM. The Ki (VIM-1) was 350 ± 45.4 nM, the MIC [7] was greater than 256 µg/mL and the Ki (OXA-24) was 1.09 ± 0.387 nM. The MIC [8] was 8 µg/mL (≈ 20.7 µM), the “MICs, range” value [9] was 2 to 256 µg/mL and the MIC [10] was 128 µg/mL (≈ 331 µM). The MIC [11] was greater than 256 µg/mL.

With C[C@@H](O)[C@H]1C(=O)N2C(C(=O)O)=C(S[C@@H]3CN[C@H](C(=O)N(C)C)C3)[C@H](C)[C@H]12 [MEM, meropenem] the “CLSI MIC interpretation I (intermediate)” value [12, 19] was 0%, the “CLSI MIC interpretation R (resistant)” value [12, 19] was 96% and the “CLSI MIC interpretation S (susceptible)” value [12, 19] was 4%. It also gave an MIC50 [12, 20] of 32 µg/mL (≈ 83.4 µM), an MIC90 [12, 20] greater than 32 µg/mL and an MIC [13] of 32 µg/mL (≈ 83.4 µM). The ED50 ([14]; read-out: ED50 of MEM (95% confidence intervals), K. pneumoniae ATCC BAA-2344, Experiment 1, single sc dose 2 h after ip inoculation, survival day 7, dose ratio in label) was 205 mg/kg, the ED50 ([14]; read-out: ED50 of MEM (95% confidence intervals), K. pneumoniae ATCC BAA-2344, Experiment 2, single sc dose 2 h after ip inoculation, survival day 7, dose ratio in label) was 54.8 mg/kg and the “bacterial growth in the thigh compared with the control group” value [15] was “no significant reduction in bacterial growth”. For the same molecule, the ED50 ([16]; read-out: ED50 of MEM (95% confidence intervals), E. coli ATCC BAA-2469, Experiment 1, single sc dose, survival day 7, dose ratio in label) was 103 mg/kg, the ED50 ([16]; read-out: ED50 of MEM (95% confidence intervals), E. coli ATCC BAA-2469, Experiment 2, single sc dose, survival day 7, dose ratio in label) was 118 mg/kg and the ED50 [17] was 54.8 mg/kg. For the same molecule, the MBC range [18] was 64 to 256 µg/mL and the MIC Range [18] was 64 to 256 µg/mL.
